Assay results published in article PMC9927415, “Tyrosine Kinase Inhibitors Display Potent Activity against Cryptosporidium parvum” (Microbiology Spectrum, 2022).

Key:
panel of 203 kinases [1] = biological target: T1, panel of 203 kinases (Homo sapiens, UniProt P29323); assay: KINOMEscan competitive binding, whole panel; details: 10 µM, n=1; kinase EPHB2; read-out: Percent inhibition EPHB2
T1 construct: purchased DiscoverX (KINOMEscan)
T1 sequence (P29323 19-1055): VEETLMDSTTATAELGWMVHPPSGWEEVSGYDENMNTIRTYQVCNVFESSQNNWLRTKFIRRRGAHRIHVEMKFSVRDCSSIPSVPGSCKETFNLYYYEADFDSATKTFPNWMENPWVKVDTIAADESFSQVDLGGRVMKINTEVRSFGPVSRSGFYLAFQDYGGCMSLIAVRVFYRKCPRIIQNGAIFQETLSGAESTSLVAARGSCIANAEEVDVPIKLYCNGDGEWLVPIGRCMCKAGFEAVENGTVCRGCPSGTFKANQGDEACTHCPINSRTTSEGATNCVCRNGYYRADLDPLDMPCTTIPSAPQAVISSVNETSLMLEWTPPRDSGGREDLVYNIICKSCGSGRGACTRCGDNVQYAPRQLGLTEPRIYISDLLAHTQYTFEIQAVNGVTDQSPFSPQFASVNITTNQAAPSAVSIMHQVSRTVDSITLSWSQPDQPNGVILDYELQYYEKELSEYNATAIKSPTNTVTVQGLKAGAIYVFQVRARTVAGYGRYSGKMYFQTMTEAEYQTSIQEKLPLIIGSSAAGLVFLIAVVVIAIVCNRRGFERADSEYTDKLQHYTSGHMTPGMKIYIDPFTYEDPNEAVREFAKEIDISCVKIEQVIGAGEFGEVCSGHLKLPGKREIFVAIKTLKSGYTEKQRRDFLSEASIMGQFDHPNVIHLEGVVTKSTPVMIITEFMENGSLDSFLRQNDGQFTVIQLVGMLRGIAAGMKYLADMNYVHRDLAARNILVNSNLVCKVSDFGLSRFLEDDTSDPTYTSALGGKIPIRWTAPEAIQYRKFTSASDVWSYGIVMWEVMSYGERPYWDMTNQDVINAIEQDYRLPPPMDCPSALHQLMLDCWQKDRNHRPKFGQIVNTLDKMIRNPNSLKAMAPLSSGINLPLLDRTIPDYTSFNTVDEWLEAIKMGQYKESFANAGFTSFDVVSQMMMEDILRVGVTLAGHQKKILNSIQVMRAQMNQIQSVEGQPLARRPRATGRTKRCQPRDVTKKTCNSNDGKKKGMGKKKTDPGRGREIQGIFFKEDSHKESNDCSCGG
How it was run: (§1)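 This competitive binding format measures displacement of T7 phage-tagged kinases from an immobilized ATP-site ligand by the test compound; values are percentage inhibition.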

panel of 203 kinases [2] = biological target: T2, panel of 203 kinases (Homo sapiens, UniProt Q9HBH9); assay: KINOMEscan competitive binding, whole panel; details: 10 µM, n=1; kinase MKNK2; read-out: Percent inhibition MKNK2
T2 construct: purchased DiscoverX (KINOMEscan)
How it was run: as §1

PAK6 = biological target: T3, PAK6 (Homo sapiens, UniProt Q9NQU5); assay: KINOMEscan competitive binding; details: n=1, read-out: Percent inhibition, PAK6
T3 construct: purchased DiscoverX (KINOMEscan)

PIM2 = biological target: T4, PIM2 (Homo sapiens, UniProt Q9P1W9); assay: KINOMEscan competitive binding; details: n=1, read-out: Percent inhibition, PIM2
T4 construct: purchased DiscoverX (KINOMEscan)

RPS6KA2(Kin.Dom.1) = biological target: T5, RPS6KA2(Kin.Dom.1) (Homo sapiens, UniProt Q15349); assay: KINOMEscan competitive binding; details: n=1, read-out: Percent inhibition, RPS6KA2(Kin.Dom.1)
T5 construct: RPS6KA2(Kin.Dom.1); purchased DiscoverX (KINOMEscan)

SRPK1 = biological target: T6, SRPK1 (Homo sapiens, UniProt Q96SB4); assay: KINOMEscan competitive binding; details: n=1, read-out: Percent inhibition, SRPK1
T6 construct: purchased DiscoverX (KINOMEscan)

STK16 = biological target: T7, STK16 (Homo sapiens, UniProt O75716); assay: KINOMEscan competitive binding; details: n=1, read-out: Percent inhibition, STK16
T7 construct: purchased DiscoverX (KINOMEscan)

TGFBR1 = biological target: T8, TGFBR1 (Homo sapiens, UniProt P36897); assay: KINOMEscan competitive binding; details: n=1, read-out: Percent inhibition, TGFBR1
T8 construct: purchased DiscoverX (KINOMEscan)
T8 sequence (P36897 34-503): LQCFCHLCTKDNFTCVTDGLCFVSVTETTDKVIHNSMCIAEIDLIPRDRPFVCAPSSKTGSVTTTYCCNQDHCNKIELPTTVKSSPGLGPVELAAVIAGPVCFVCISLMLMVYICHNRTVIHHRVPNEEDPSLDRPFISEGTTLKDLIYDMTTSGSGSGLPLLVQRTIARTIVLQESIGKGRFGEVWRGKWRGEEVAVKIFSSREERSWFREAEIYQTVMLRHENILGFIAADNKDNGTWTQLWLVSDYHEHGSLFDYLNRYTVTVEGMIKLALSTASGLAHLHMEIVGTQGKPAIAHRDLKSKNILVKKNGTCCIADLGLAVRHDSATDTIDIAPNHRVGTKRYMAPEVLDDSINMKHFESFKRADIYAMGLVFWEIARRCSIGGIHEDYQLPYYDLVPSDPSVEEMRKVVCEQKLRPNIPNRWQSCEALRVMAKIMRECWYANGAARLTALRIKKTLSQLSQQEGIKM

YANK3 = biological target: T9, YANK3 (Homo sapiens, UniProt Q86UX6); assay: KINOMEscan competitive binding; details: n=1, read-out: Percent inhibition, YANK3
T9 construct: purchased DiscoverX (KINOMEscan)

YES = biological target: T10, YES (Homo sapiens, UniProt P07947); assay: KINOMEscan competitive binding; details: n=1, read-out: Percent inhibition, YES
T10 construct: purchased DiscoverX (KINOMEscan)
T10 sequence (P07947 whole entry): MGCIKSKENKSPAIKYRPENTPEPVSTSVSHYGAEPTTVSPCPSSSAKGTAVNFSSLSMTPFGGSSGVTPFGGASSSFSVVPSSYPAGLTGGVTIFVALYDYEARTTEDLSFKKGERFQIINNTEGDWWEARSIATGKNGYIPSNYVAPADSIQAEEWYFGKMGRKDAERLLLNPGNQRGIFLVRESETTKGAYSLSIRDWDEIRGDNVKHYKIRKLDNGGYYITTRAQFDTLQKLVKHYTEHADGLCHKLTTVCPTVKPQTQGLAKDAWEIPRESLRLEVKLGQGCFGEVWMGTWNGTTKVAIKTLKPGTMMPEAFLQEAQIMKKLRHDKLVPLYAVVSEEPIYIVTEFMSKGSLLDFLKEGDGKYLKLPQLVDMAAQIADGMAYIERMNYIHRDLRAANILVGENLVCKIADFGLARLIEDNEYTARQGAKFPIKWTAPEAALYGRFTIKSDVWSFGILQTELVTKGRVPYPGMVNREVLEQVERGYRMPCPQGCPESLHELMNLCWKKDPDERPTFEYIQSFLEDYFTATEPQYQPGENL

T7 sequence (O75716 whole entry): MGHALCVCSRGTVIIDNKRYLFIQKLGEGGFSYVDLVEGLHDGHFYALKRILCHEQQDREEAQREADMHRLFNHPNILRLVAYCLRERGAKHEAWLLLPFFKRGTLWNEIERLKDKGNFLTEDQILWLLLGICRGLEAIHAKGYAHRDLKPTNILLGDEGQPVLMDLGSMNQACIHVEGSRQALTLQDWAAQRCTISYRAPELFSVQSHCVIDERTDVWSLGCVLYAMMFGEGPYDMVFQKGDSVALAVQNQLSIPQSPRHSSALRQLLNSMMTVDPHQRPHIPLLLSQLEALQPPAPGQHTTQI
T5 sequence (Q15349 1-388 limits assumed): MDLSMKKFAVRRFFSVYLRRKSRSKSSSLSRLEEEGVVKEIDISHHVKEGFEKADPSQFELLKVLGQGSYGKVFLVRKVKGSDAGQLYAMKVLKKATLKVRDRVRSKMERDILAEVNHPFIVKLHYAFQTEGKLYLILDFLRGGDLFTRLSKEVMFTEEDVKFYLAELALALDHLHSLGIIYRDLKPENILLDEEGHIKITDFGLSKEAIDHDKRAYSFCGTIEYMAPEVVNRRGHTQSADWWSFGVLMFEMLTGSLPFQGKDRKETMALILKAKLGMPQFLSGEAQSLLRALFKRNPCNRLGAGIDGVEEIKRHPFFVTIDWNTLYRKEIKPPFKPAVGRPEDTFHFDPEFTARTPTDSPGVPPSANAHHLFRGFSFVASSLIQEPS
T2 sequence (Q9HBH9 whole entry): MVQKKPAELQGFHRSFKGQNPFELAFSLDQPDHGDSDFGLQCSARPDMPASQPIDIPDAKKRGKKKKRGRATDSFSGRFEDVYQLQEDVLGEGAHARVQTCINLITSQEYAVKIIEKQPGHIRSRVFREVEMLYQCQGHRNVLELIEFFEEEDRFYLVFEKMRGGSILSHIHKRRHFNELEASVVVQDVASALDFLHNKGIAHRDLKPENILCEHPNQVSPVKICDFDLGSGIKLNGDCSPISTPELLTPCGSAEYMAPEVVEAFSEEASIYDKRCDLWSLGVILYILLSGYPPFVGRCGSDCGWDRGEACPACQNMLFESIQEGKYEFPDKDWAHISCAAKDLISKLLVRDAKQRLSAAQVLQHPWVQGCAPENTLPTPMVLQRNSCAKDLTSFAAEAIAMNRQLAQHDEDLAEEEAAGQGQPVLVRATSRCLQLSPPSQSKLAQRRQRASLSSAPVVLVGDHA
T9 sequence (Q86UX6 whole entry): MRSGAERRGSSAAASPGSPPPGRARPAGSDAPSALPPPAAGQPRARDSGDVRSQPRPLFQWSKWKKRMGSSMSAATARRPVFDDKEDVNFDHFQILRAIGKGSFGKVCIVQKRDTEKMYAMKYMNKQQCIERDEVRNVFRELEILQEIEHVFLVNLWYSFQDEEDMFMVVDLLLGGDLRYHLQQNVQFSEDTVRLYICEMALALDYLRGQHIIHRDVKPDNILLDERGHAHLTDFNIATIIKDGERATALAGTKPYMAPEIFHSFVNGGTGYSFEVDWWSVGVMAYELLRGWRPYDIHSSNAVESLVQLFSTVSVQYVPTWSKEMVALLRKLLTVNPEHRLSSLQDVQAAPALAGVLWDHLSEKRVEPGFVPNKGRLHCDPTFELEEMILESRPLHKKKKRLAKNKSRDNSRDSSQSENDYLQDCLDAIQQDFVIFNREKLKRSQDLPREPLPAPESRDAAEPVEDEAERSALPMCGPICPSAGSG
T3 sequence (Q9NQU5 whole entry): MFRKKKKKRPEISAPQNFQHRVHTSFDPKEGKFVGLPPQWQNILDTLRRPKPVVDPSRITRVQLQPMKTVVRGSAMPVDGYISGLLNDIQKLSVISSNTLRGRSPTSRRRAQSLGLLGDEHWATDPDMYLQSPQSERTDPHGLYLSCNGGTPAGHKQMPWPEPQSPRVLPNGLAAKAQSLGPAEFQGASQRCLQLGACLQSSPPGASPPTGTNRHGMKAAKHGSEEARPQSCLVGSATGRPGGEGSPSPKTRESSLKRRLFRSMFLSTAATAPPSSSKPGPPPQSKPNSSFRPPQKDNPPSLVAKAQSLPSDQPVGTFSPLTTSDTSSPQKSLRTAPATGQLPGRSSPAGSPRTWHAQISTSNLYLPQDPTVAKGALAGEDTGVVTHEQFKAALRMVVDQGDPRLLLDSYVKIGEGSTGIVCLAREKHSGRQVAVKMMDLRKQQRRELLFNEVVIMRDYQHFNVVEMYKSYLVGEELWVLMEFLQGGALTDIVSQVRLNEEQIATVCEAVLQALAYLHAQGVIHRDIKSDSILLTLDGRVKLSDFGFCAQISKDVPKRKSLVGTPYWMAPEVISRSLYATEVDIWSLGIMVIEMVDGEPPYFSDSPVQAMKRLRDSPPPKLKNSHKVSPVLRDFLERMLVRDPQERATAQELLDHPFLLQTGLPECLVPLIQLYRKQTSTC
T4 sequence (Q9P1W9 whole entry): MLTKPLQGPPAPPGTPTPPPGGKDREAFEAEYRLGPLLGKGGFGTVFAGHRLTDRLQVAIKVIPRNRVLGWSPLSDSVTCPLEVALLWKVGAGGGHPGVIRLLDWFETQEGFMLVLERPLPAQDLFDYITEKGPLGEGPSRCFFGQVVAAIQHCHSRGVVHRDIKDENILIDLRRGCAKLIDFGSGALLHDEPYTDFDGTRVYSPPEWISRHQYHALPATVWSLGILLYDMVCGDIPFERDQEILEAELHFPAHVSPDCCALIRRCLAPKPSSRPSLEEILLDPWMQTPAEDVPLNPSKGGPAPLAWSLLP
T6 sequence (Q96SB4 whole entry): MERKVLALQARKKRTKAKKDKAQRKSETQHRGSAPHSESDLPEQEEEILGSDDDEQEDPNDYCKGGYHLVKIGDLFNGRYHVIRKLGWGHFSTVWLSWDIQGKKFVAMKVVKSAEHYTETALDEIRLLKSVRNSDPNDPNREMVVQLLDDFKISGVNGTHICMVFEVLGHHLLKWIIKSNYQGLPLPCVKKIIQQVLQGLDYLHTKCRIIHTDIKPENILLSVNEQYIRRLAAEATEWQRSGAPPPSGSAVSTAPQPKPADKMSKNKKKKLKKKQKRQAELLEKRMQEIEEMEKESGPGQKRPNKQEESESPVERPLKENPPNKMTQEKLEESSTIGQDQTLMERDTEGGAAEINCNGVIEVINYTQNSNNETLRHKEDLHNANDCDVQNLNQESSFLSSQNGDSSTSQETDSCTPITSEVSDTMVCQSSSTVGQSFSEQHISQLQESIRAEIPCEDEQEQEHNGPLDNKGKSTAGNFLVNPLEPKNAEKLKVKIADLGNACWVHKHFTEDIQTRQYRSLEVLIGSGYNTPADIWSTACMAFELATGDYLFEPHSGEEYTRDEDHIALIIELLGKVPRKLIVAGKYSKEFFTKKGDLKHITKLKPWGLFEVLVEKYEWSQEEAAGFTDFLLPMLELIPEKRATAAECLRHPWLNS

Row | Compound | inhibition at 10 µM (panel of 203 kinases [1]) | inhibition at 10 µM (panel of 203 kinases [2]) | inhibition at 10 µM (PAK6) | inhibition at 10 µM (PIM2) | inhibition at 10 µM (RPS6KA2(Kin.Dom.1)) | inhibition at 10 µM (SRPK1) | inhibition at 10 µM (STK16) | inhibition at 10 µM (TGFBR1) | inhibition at 10 µM (YANK3) | inhibition at 10 µM (YES)
1 | CN1CCN(c2ccc(Nc3nccc(-c4cnn5ncccc45)n3)cc2C#N)CC1 [Compound 1] | 0% | 97% | 92.5% | 99.7% | 77.6% | 95.5% | 100% | 78.8% | 0% | 92.8%
2 | COc1ccc(Nc2nccc(-c3cnn4ncccc34)n2)cc1 [Compound 2] | 0% | 99.4% | 82% | 81.1% | 0% | 90.6% | 99.7% | 0% | 0% | 0%
3 | Cc1ccc(O)cc1Nc1ccnc(Nc2cccc(C(N)=O)c2)n1 [Compound 3] | 100% | 83.9% | 0% | 0% | 0% | 0% | 99.9% | 100% | 0% | 100%
4 | Cc1ccc(O)cc1N(C)c1ccnc(Nc2cccc(S(N)(=O)=O)c2)n1 [Compound 4] | 100% | 99.3% | 94.3% | 0% | 0% | 0% | 99.8% | 100% | 78.6% | 100%
5 | Fc1cccc(COc2ccc(Nc3ncnc4c3CN(CCN3CCOCC3)CC4)cc2Cl)c1 [Compound 6] | 0% | 0% | 0% | 0% | 0% | 0% | 0% | 0% | 0% | 0%
6 | COc1cc(Nc2nccc(-c3sc(N)nc3-c3cccc(NC(=O)c4c(F)cccc4F)c3)n2)cc(OC)c1OC [Compound 7] | 99.4% | 100% | 65% | 0% | 97.2% | 0% | 98.7% | 72.9% | 94.8% | 100%
7 | C[C@@H](Oc1cc(-c2cnc3ccccn23)sc1C(N)=O)c1ccccc1Cl [Compound 8] | 0% | 0% | 0% | 0% | 70% | 96.1% | 0% | 0% | 0% | 0%
8 | c1ccc(COc2cccc(-c3ccnc4[nH]ccc34)c2)cc1 [Compound 9] | 0% | 0% | 0% | 0% | 0% | 71.2% | 0% | 0% | 0% | 0%
9 | Clc1ccc(Nc2ncc(-c3ccccc3)s2)cc1 [Compound 10] | 0% | 65.7% | 0% | 0% | 0% | 0% | 0% | 0% | 0% | 0%
10 | Nc1ncc2c(-c3ccncc3)c[nH]c2n1 [Compound 11] | 62.6% | 97.3% | 0% | 0% | 0% | 0% | 0% | 0% | 0% | 66.2%
